Structures can show the parent of a compound that is named as a salt. Where two headings read alike, the source gives them in different places.
Assay: Phase 1a study: pharmacokinetics after oral BID dosing in subjects with advanced solid tumors
Assay type: in vivo, human
Design: Increase in mean: scale not given here
Conditions: for Increase in mean: 600 mg vs preceding dose level (400 mg); for Cmax / half-life / AUC(0-t) / Vd/F / Tmax: human, in vivo, po; for Vd/F: read-out: Vz/F
Experimental: This example describes a first in human, Phase 1a, multi-center, open-label study to establish the maximum tolerated dose (MTD) and evaluate the safety and tolerability of oral dosing of Form A of the hemi-fumarate salt of the compound of formula (I) (Example 11) in a dose-escalating fashion. Form A of the hemi-fumarate salt was orally administered BID every day with food or within 30 minutes of completing a meal, starting at 25 mg, with doses escalating to 50, 100, 200, 400, 600, and 900 mg BID as safety allows for each 3-week treatment cycle.
Up to 36 qualified subjects at 3 to 5 US sites, who have specific tumor types of renal cell carcinoma (RCC), gastric cancer (GC), metastatic breast cancer (MBC), small cell lung cancer (SCLC), and other solid tumors (e.g., non-small cell lung cancer, colorectal cancer, carcinoma of unknown primary) with the exception of rapidly progressing neoplasms (e.g., pancreatic cancer, glioblastoma, hepatocellular carcinoma) received Form A of the hemi-fumarate salt. Every effort was made to ensure approximately 50% of all subjects enrolled were subjects with RCC and GC. The starting dose level was 25 mg twice daily (BID), escalating to 50, 100, and 200 mg BID as safety allows, following the Bayesian Optimal Interval (BOIN) design. The safety monitoring committee (SMC) evaluated the dose-limiting toxicities (DLTs) and cumulative safety and PK data at the end of each cohort. Based on the SMC recommendations after a comprehensive review of PK and safety data for 200 mg BID dose, higher dose levels were evaluated, starting with 400 mg BID. The dose escalated to 600 mg and then 900 mg following the BOIN design starting with 1 subject at each escalated dose, until the MTD was reached or the sponsor or SMC declares the dose most appropriate for clinical development. This Phase 1a will be expanded into a Phase 1b/2a study through a protocol amendment and will then assess the dose and tumor type(s) selected in Phase 1a as the most appropriate for further clinical development. Subjects were dosed until unacceptable toxicity, disease progression per immune-related Response Evaluation Criteria in Solid Tumors (iRECIST), subject withdrawal, any other administrative reasons, or after 2 years of treatment, whichever occurs first. Efficacy was assessed via Response Evaluation Criteria in Solid Tumors 1.1 (RECIST 1.1); computed tomography (CT) scans were conducted every 6 weeks. Safety, including occurrence of dose-limiting toxicities (DLTs), pharmacokinetics (PK), and biomarker parameters were also assessed.
Form A of the hemi-fumarate salt was orally administered BID with food or within 30 minutes of completing a meal, starting at 25 mg, with doses escalating to 50, 100, 200, 400, 600 and 900 mg BID as safety allowed. Up to 24 subjects were enrolled to ensure 12 subjects completed the study at the estimated MTD of Form A of the hemi-fumarate salt. Dosing occurred in 3-week cycles. Subjects spent Cycle 1/Day 1 (C1D1) in the clinic followed by an overnight stay for safety monitoring and PK sampling. Subjects were hospitalized for administration of first 3 doses: CID1 am and pm doses, and Cycle 1/Day 2 (C1D2) am dose; on Days 8, 15, and 21 the am dose was taken in the clinic after the planned PK samples. All other doses were self administered at home.
Results of Cohorts 1 to 6 the study are detailed in Tables 47-50 below.

[1] = 25 mg, 25 mg single oral dose, Cycle 1 Day 1, geometric mean, N = 3
[2] = 50 mg, 50 mg single oral dose, Cycle 1 Day 1, geometric mean, N = 3
[3] = 200 mg, 200 mg single oral dose, Cycle 1 Day 1, geometric mean, N = 5

Cc1cc(NC(=O)[C@H](O)c2cc(F)cc(F)c2)ccc1-c1cnc(N)c(C(=O)NC(C)C)c1 [Form A of the hemi-fumarate salt, (R)-2-amino-5-(4-(2-(3,5-difluorophenyl)-2-hydroxyacetamido)-2-methylphenyl)-N-isopropylnicotinamide]
Increase in mean (single oral dose, Cycle 1 Day 1): 3.03 | Increase in mean (twice daily oral, Cycle 1 Day 21): 1.19 | Cmax [1]: 120 ng/mL | half-life (25 mg, 25 mg single oral dose, Cycle 1 Day 1, geometric mean, N = 3, interpret with caution, terminal elimination phase not well captured, read-out: t1/2 (converted)): 8.99 h | AUC(0-t) (25 mg, 25 mg single oral dose, Cycle 1 Day 1, geometric mean, N = 3, read-out: AUC0-12): 850 ng·h/mL | AUC(0-t) (25 mg, 25 mg single oral dose, Cycle 1 Day 1, geometric mean, N = 3, read-out: AUC0-last): 850 ng·h/mL | Vd/F [1]: 147 L | Tmax (25 mg, 25 mg single oral dose, Cycle 1 Day 1, median, N = 3): 8 h | half-life (25 mg, 25 mg twice daily oral, Cycle 1 Day 21, N = 3, interpret with caution, terminal elimination phase not well captured, read-out: t1/2 (converted)): 16 h | Vd/F (25 mg, 25 mg twice daily oral, Cycle 1 Day 21, N = 3): 150 L | Cmax (25 mg, 25 mg twice daily oral, Cycle 1 Day 21, geometric mean, N = 3): 537 ng/mL | AUC(0-t) (25 mg, 25 mg twice daily oral, Cycle 1 Day 21, geometric mean, N = 3, read-out: AUC0-last): 4110 ng·h/mL | half-life (25 mg, 25 mg twice daily oral, Cycle 1 Day 21, geometric mean, N = 3, read-out: t1/2, eff (converted)): 35.8 h | Tmax (25 mg, 25 mg twice daily oral, Cycle 1 Day 21, median, N = 3): 2 h | Cmax [2]: 243 ng/mL | half-life (50 mg, 50 mg single oral dose, Cycle 1 Day 1, geometric mean, N = 3, interpret with caution, terminal elimination phase not well captured, read-out: t1/2 (converted)): 11.1 h | AUC(0-t) (50 mg, 50 mg single oral dose, Cycle 1 Day 1, geometric mean, N = 3, read-out: AUC0-12): 2090 ng·h/mL | AUC(0-t) (50 mg, 50 mg single oral dose, Cycle 1 Day 1, geometric mean, N = 3, read-out: AUC0-last): 2090 ng·h/mL | Vd/F [2]: 141 L | Tmax (50 mg, 50 mg single oral dose, Cycle 1 Day 1, median, N = 3): 4 h | Cmax (50 mg, 50 mg twice daily oral, Cycle 1 Day 21, geometric mean, N = 3): 978 ng/mL | AUC(0-t) (50 mg, 50 mg twice daily oral, Cycle 1 Day 21, geometric mean, N = 3, read-out: AUC0-last): 9070 ng·h/mL | half-life (50 mg, 50 mg twice daily oral, Cycle 1 Day 21, geometric mean, N = 3, read-out: t1/2, eff (converted)): 31.5 h | Tmax (50 mg, 50 mg twice daily oral, Cycle 1 Day 21, median, N = 3): 2 h | Cmax (100 mg, 100 mg single oral dose, Cycle 1 Day 1, geometric mean, N = 4): 380 ng/mL | AUC(0-t) (100 mg, 100 mg single oral dose, Cycle 1 Day 1, geometric mean, N = 4, read-out: AUC0-12): 2800 ng·h/mL | AUC(0-t) (100 mg, 100 mg single oral dose, Cycle 1 Day 1, geometric mean, N = 4, read-out: AUC0-last): 1930 ng·h/mL | Tmax (100 mg, 100 mg single oral dose, Cycle 1 Day 1, median, N = 4): 7 h | half-life (100 mg, 100 mg twice daily oral, Cycle 1 Day 21, N = 3, interpret with caution, terminal elimination phase not well captured, read-out: t1/2 (converted)): 37.6 h | Vd/F (100 mg, 100 mg twice daily oral, Cycle 1 Day 21, N = 3): 383 L | Cmax (100 mg, 100 mg twice daily oral, Cycle 1 Day 21, geometric mean, N = 3): 1310 ng/mL | AUC(0-t) (100 mg, 100 mg twice daily oral, Cycle 1 Day 21, geometric mean, N = 3, read-out: AUC0-last): 11700 ng·h/mL | half-life (100 mg, 100 mg twice daily oral, Cycle 1 Day 21, geometric mean, N = 3, read-out: t1/2, eff (converted)): 30.1 h | Tmax (100 mg, 100 mg twice daily oral, Cycle 1 Day 21, median, N = 3): 4 h | Cmax [3]: 839 ng/mL | half-life (200 mg, 200 mg single oral dose, Cycle 1 Day 1, geometric mean, N = 5, interpret with caution, terminal elimination phase not well captured, read-out: t1/2 (converted)): 20.6 h | AUC(0-t) (200 mg, 200 mg single oral dose, Cycle 1 Day 1, geometric mean, N = 5, read-out: AUC0-12): 5800 ng·h/mL | AUC(0-t) (200 mg, 200 mg single oral dose, Cycle 1 Day 1, geometric mean, N = 5, read-out: AUC0-last): 5800 ng·h/mL | Vd/F [3]: 331 L | Tmax (200 mg, 200 mg single oral dose, Cycle 1 Day 1, median, N = 5): 4 h | half-life (200 mg, 200 mg twice daily oral, Cycle 1 Day 21, N = 4, interpret with caution, terminal elimination phase not well captured, read-out: t1/2 (converted)): 7.71 h | Vd/F (200 mg, 200 mg twice daily oral, Cycle 1 Day 21, N = 4): 79.4 L | Cmax (200 mg, 200 mg twice daily oral, Cycle 1 Day 21, geometric mean, N = 4): 2990 ng/mL | AUC(0-t) (200 mg, 200 mg twice daily oral, Cycle 1 Day 21, geometric mean, N = 4, read-out: AUC0-last): 27200 ng·h/mL | half-life (200 mg, 200 mg twice daily oral, Cycle 1 Day 21, geometric mean, N = 4, read-out: t1/2, eff (converted)): 35.9 h

— US20260265199A1, “CRYSTALLINE FORMS OF (R)-2-AMINO-5-(4-(2-(3,5-DIFLUOROPHENYL)-2-HYDROXYACETAMIDO)-2-METHYLPHENYL)-N-ISOPROPYLNICOTINAMIDE AND METHODS FOR USING THE SAME” (HIBERCELL, INC., priority 2023, published 2026)
